These results are taken from ChEMBL document CHEMBL1201862, “PubChem BioAssay data set” (2004).

Among the test systems are DU-145; OVCAR-5; SF-295; A549; SNB-75; OVCAR-8; MCF7; SK-MEL-28; COLO 205; A498; SK-OV-3; HCT-15; HCC 2998; Hs-578T; SK-MEL-2; HOP-92; SNB-19; SK-MEL-5; HCT-116; CCRF-CEM.
Holding throughout (test): NCI-60 cell line screen, 48 h

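Compound exposure: 48 hours, 5 concentrations, 96-well plates. The concentration for 50% growth inhibition is given as GI50.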 Active and inactive are the calls of the source. Cut-off read from the data, not from the text of the source: active = GI50 up to about 1.1 µM and inactive = higher.

Regarding `CCOC(=O)C(C(=O)OCC)=C1NC2(c3ccccc3Nc3ccccc32)C(C#N)S1` (stereo not given), the GI50 was 12 µM (inactive) in the assay on DU-145; 16.7 µM (inactive) in the assay on OVCAR-5; 11.1 µM (inactive) in the assay with SF-295; 4.39 µM (inactive) with A549; 16.2 µM (inactive) in the assay on SNB-75; 10.9 µM (inactive) with OVCAR-8. For the same compound, the GI50 in the assay with MCF7 was 3.39 µM (inactive); with SK-MEL-28, 17 µM (inactive); in the assay with COLO 205 it was 6.75 µM (inactive); in the assay on A498, 13.8 µM (inactive); with SK-OV-3, 12.7 µM (inactive); in the assay on HCT-15 it was 5.78 µM. Further, the GI50 in the assay on HCC 2998 was 4.42 µM (inactive); in the assay with Hs-578T, 19.1 µM (inactive); in the assay on SK-MEL-2, 11.6 µM (inactive); in the assay on HOP-92, 4.34 µM (inactive); in the assay with SNB-19, 12.6 µM (inactive); with SK-MEL-5, 10 µM (inactive). Further, the GI50 in the assay with HCT-116 was 9.89 µM (inactive); with CCRF-CEM, 6.08 µM (inactive).

For the compound `O=C1/C(=C\c2ccccc2)CN(C(=O)CCN2CCCCC2)C/C1=C/c1ccccc1`, the GI50 is 5.21 µM (inactive) in the assay with DU-145; 1.72 µM (inactive) in the assay with OVCAR-5; 1.67 µM (inactive) in the assay with SF-295; 3.73 µM (inactive) in the assay with A549; 0.834 µM (active) in the assay with SNB-75; 0.869 µM (active) in the assay with OVCAR-8. The GI50 in the assay with MCF7 was 0.415 µM (active); in the assay on SK-MEL-28 it was 1.97 µM (inactive); with COLO 205, 1.76 µM (inactive); with A498, 2.69 µM (inactive); with SK-OV-3, 4.01 µM (inactive); in the assay on HCT-15, 1.09 µM. In addition, the GI50 is 1.44 µM (inactive) with HCC 2998; 0.0153 µM (active) in the assay on Hs-578T; 2 µM (inactive) in the assay with SK-MEL-2; 3.55 µM (inactive) with HOP-92; 1.84 µM (inactive) with SNB-19; 1.17 µM (inactive) with SK-MEL-5. In addition, the GI50 was 0.254 µM (active) with HCT-116 and 0.198 µM (active) with CCRF-CEM.

For `O=C1NC2=NOC(=O)NC2=NO1`, the GI50 in the assay on DU-145, in the assay on OVCAR-5, with SF-295, with A549, in the assay with SNB-75 and in the assay with OVCAR-8 was > 200 µM (inactive) throughout. Besides, the GI50 with MCF7 was > 200 µM (inactive); with SK-MEL-28, > 200 µM (inactive); in the assay with COLO 205 it was > 200 µM (inactive); in the assay on A498, > 200 µM (inactive); in the assay on SK-OV-3 it was > 200 µM (inactive); with HCT-15, above 200 µM. Moreover, the GI50 in the assay on HCC 2998, with Hs-578T, in the assay on SK-MEL-2, with HOP-92, in the assay with SNB-19 and in the assay on SK-MEL-5 was > 200 µM (inactive) in each case. Also, the GI50 in the assay with HCT-116 and in the assay with CCRF-CEM was > 200 µM (inactive) each time.

Take `C/C(=N\NS(=O)(=O)c1ccc(C)cc1)c1ccccn1`: the GI50 was > 100 µM (inactive) in the assay on DU-145; > 100 µM (inactive) in the assay with OVCAR-5; 43.3 µM (inactive) in the assay on SF-295; 53.3 µM (inactive) in the assay on A549; > 100 µM (inactive) in the assay on SNB-75; 50.8 µM (inactive) in the assay on OVCAR-8. The GI50 in the assay on MCF7 was 53.8 µM (inactive); with SK-MEL-28, 98.2 µM (inactive); with COLO 205, 32.7 µM (inactive); in the assay with A498 it was 24.3 µM (inactive); in the assay with SK-OV-3, 55.3 µM (inactive); with HCT-15, 38.5 µM. Besides, the GI50 in the assay with HCC 2998 is > 100 µM (inactive); in the assay with Hs-578T, 87.3 µM (inactive); with SK-MEL-2, > 100 µM (inactive); with HOP-92 it was > 100 µM (inactive); in the assay on SNB-19, 74.8 µM (inactive); in the assay on SK-MEL-5, 33.4 µM (inactive). The GI50 is 40.7 µM (inactive) with HCT-116 and 18.5 µM (inactive) in the assay with CCRF-CEM.

Regarding `O=C1c2c(F)c(F)c(F)c(F)c2SC2=Nc3cccc4cccc(c34)N12`, the GI50 with DU-145 is 12.2 µM (inactive); with OVCAR-5 it was 16.1 µM (inactive); in the assay with SF-295, 14.5 µM (inactive); in the assay on A549, 18.5 µM (inactive); in the assay on SNB-75, 12.1 µM (inactive); in the assay with OVCAR-8, 5.41 µM (inactive). Also, the GI50 in the assay with MCF7 was 3.78 µM (inactive); in the assay with SK-MEL-28, 4.27 µM (inactive); in the assay with COLO 205 it was 9.35 µM (inactive); in the assay on A498 it was 18.5 µM (inactive); in the assay on SK-OV-3 it was 4.14 µM (inactive); with HCT-15, 4.92 µM. For the same compound, the GI50 is 13.9 µM (inactive) in the assay with HCC 2998; 2.86 µM (inactive) in the assay with Hs-578T; 2.75 µM (inactive) in the assay with SK-MEL-2; 2.37 µM (inactive) in the assay with HOP-92; 8.09 µM (inactive) with SNB-19; 14.1 µM (inactive) in the assay on SK-MEL-5. Also, the GI50 is 4.08 µM (inactive) in the assay with HCT-116 and 3.31 µM (inactive) with CCRF-CEM.

On to `O=C1NC(=S)NC(=O)C1=C(O)Nc1ccccc1`, for which the GI50 in the assay with DU-145 is 30.5 µM (inactive); in the assay with OVCAR-5, 47.2 µM (inactive); in the assay with SF-295 it was 27.7 µM (inactive); with A549, 24.1 µM (inactive); in the assay on SNB-75, 27.7 µM (inactive); in the assay with OVCAR-8 it was 27.8 µM (inactive). For the same compound, the GI50 in the assay with MCF7 is 19.1 µM (inactive); with SK-MEL-28 it was 47.9 µM (inactive); with COLO 205, 27.4 µM (inactive); in the assay with A498, 28.6 µM (inactive); in the assay on SK-OV-3 it was 38.9 µM (inactive); with HCT-15 it was 14.2 µM. Moreover, the GI50 in the assay with HCC 2998 was 42.8 µM (inactive); with Hs-578T it was 20.2 µM (inactive); in the assay with SK-MEL-2, 35.9 µM (inactive); in the assay on HOP-92, 8.34 µM (inactive); in the assay on SNB-19, 25.8 µM (inactive); in the assay on SK-MEL-5, 21.5 µM (inactive). Moreover, the GI50 in the assay with HCT-116 was 29.1 µM (inactive); in the assay on CCRF-CEM, 16.4 µM (inactive).

`CN(C)CCOc1ccc2[nH]c(C(=O)N3CC(CCl)c4ccc(N)cc43)cc2c1` (stereo not given): the GI50 is 0.0323 µM (active) with DU-145; 0.141 µM (active) in the assay with OVCAR-5; 0.0885 µM (active) in the assay on SF-295; 0.0667 µM (active) with A549; 0.112 µM (active) in the assay with SNB-75; 0.0912 µM (active) in the assay with OVCAR-8. The GI50 in the assay on MCF7 is 0.0266 µM (active); with SK-MEL-28, 0.126 µM (active); in the assay on COLO 205, 0.083 µM (active); with A498, 0.208 µM (active); with SK-OV-3 it was 1.94 µM (inactive); with HCT-15 it was 0.102 µM. Also, the GI50 was 0.0535 µM (active) with HCC 2998; 0.176 µM (active) in the assay with Hs-578T; 0.0653 µM (active) with SK-MEL-2; 0.36 µM (active) in the assay on HOP-92; 0.258 µM (active) in the assay on SNB-19; 0.0451 µM (active) in the assay with SK-MEL-5. Besides, the GI50 in the assay with HCT-116 was 0.0354 µM (active); in the assay on CCRF-CEM it was 0.0381 µM (active).

As for `COc1cccc2c(=O)c3c(n(C)c12)OC(C(C)C)C3` (stereo not given), the GI50 with DU-145, in the assay on OVCAR-5, in the assay with SF-295, in the assay on A549, in the assay on SNB-75 and with OVCAR-8 was > 100 µM (inactive) in each case. In addition, the GI50 in the assay on MCF7 was > 100 µM (inactive); with SK-MEL-28, > 100 µM (inactive); in the assay on COLO 205 it was 74 µM (inactive); in the assay on A498, > 100 µM (inactive); in the assay with SK-OV-3, > 100 µM (inactive); with HCT-15, 46.9 µM. Moreover, the GI50 was > 100 µM (inactive) in the assay with HCC 2998; > 100 µM (inactive) in the assay with Hs-578T; > 100 µM (inactive) in the assay with SK-MEL-2; > 100 µM (inactive) in the assay with HOP-92; 69.7 µM (inactive) in the assay on SNB-19; 56.1 µM (inactive) with SK-MEL-5. Besides, the GI50 with HCT-116 and in the assay on CCRF-CEM was > 100 µM (inactive) throughout.

Turning to `Nc1ccccc1-c1noc(=O)[nH]1`, the GI50 in the assay on DU-145, in the assay on OVCAR-5, in the assay with SF-295, in the assay on A549, with SNB-75 and with OVCAR-8 was > 100 µM (inactive) throughout. Moreover, the GI50 in the assay with MCF7 is > 100 µM (inactive); with SK-MEL-28, > 100 µM (inactive); with COLO 205, > 100 µM (inactive); with A498, > 100 µM (inactive); with SK-OV-3 it was > 100 µM (inactive); with HCT-15, above 100 µM. The GI50 with HCC 2998, in the assay on Hs-578T, in the assay with SK-MEL-2, with HOP-92, with SNB-19 and in the assay on SK-MEL-5 was > 100 µM (inactive) throughout. The GI50 in the assay with HCT-116 and in the assay with CCRF-CEM was > 100 µM (inactive) in each case.

Turning to `O=C1NNC2NC(=O)C3(NN2C1=O)c1ccccc1-c1ccccc13` (stereo not given), the GI50 in the assay with DU-145, in the assay on OVCAR-5, in the assay on SF-295, with A549, in the assay on SNB-75 and in the assay with OVCAR-8 was > 100 µM (inactive) each time. Further, the GI50 with MCF7 is > 100 µM (inactive); in the assay on SK-MEL-28, > 10 µM (inactive); with COLO 205 it was > 100 µM (inactive); in the assay with A498, > 100 µM (inactive); in the assay on SK-OV-3, > 100 µM (inactive); in the assay with HCT-15, above 100 µM. Also, the GI50 in the assay on HCC 2998, with Hs-578T, with SK-MEL-2, in the assay with HOP-92, in the assay with SNB-19 and with SK-MEL-5 was > 100 µM (inactive) throughout. For the same compound, the GI50 with HCT-116 and with CCRF-CEM was > 100 µM (inactive) each time.
